The test system of one data set is complex I. The settings on record: metabolite of MPTP; cited from earlier work.
Data set [1] deals with NADH cytochrome C reductase. Conditions: certain brain areas; causing Parkinsonian-like symptoms; cited from earlier work.
The nature of data set [2]: Physical performance on the treadmill or bicycle ergometer, soccer players. Conditions: 5-mg tablet NADH daily, one month. In kind it is in vivo, human. On the procedure: A study similar to that of Example 3 was performed with a European soccer team. […] This increased energy production was confirmed by improved physical performance on the treadmill or bicycle ergometer.

Data set [3] can be described thus: Physical performance by spiro-ergometry (bicycle ergometer). In kind it is in vivo, human. The settings on record: 4 weeks. As to the method: (§1) The performance quality, reaction speed and constancy of attention also was tested in these athletes. The performance quality was assessed by the accuracy with which a task was done, i.e., generally in terms of the number of correct identifications of stimuli. Methods used for determination of performance quality were measurement of the continuous attention, vigilance, and the cognitrone program of the Vienna Test system (Dr. Schuhfried Ges.m.b.H., Austria). For examination of the physical performance, a bicycle ergometer (Oxycon-Alpha, Jager Inc., Vienna, Austria) was used. […] The volume and the intensity of the training and exercise program of the athletes was kept constant over that period. […] Data reflecting this is presented below in Tables 2-4.

The subject of data set [4] is NADH cytochrome C reductase. Kind of data set: NADH cytochrome C reductase assay of whole blood, competitive cyclists before and after oral NADH. In kind it is in vivo, human. On the procedure: (§2) Enzyme Preparation A 1-mL portion of a whole blood sample obtained from a subject by venipuncture is preserved by addition of a suitable preserving agent such as that provided by a citrate solution. To a 100-μL sample of this citrate blood is added 900 μL of phosphate balanced salt solution (PBS) at pH =7.8. The resulting 1-mL portion of buffer-diluted citrate blood is sonified with an apparatus such as that available from BRANSON at a duty cycle of 40%, output position 3. Sonification is repeated a total of ten times for 10 seconds each. An additional 1-mL volume of PBS is added to the sonified solution. The PBS-diluted solution represents the enzyme preparation utilized for further assay.
(§3) Substrate preparation A 10-mg sample of cytochrome C, obtainable from conventional sources such as Sigma Chemical, St. Louis is dissolved in 9.6 mL of distilled water. To this is added add 200 μL of 0.1 M NaN3 (sodium azide) and 200 μL of PBS (pH 7.8).
(§4) Performance of the enzyme assay A 900-μL volume of cytochrome C solution (reaction substrate) is pipetted into a 1-mL (PMMA) cuvette. The sample is mixed and allowed to incubate for 15 minutes at 37°. A 100-μL volume of enzyme preparation is added to the sample cuvette and mixed thoroughly. The absorption of reduced cytochrome C at 550 nm is measured exactly 60 seconds after addition of the enzyme preparation to the cuvette. The absorption of cytochrome C at 550 nm is again measured after 5 minutes of incubation at 37° C. after the first measurement. […]
(§5) Determination of enzymatic activity The specific activity of the enzyme species is expressed as nanomoles (nmol) of cytochrome C reduced per μL blood per 5 minutes. For quantitative analyses, a calibration curve with 0, 30, 50, 100, 130 nmol reduced cytochrome C concentrations is prepared. For calculation of the enzymatic activity expressed per blood cell, the number of red blood cells, white blood cells and IS platelets are determined. The cell counts of these cells can be determined from the undiluted citrate blood according to standard procedures. […]

Data set [5] is described as follows: Lactate blood levels after maximum performance. In kind it is in vivo, human. As to the method:
as §1

In data set [6] the test system is NADH cytochrome C reductase. Kind of data set: NADH cytochrome C reductase assay of whole blood, soccer players before and after oral NADH. Details: key to Enzyme Activity after NADH intake: nmol cytochrome C reduced per µL blood per 5 min. In kind it is in vivo, human. On the procedure: as §2, §3, §4, §5
Data set [7] deals with NADH cytochrome C reductase. Kind of data set: NADH cytochrome C reductase assay, rats before and after oral NADH. In kind it is in vivo. Details: Enzyme Activity after NADH intake: unit not given here. As to the method: as §2, §3, §4
Determination of enzymatic activity The specific activity of the enzyme species is expressed as nanomoles (nmol) of cytochrome C reduced per μL blood per 5 minutes. For quantitative analyses, a calibration curve with 0, 30, 50, 100, 130 nmol reduced cytochrome C concentrations is prepared. For calculation of the enzymatic activity expressed per blood cell, the number of red blood cells, white blood cells and IS platelets are determined. The cell counts of these cells can be determined from the undiluted citrate blood according to standard procedures.

A short description of data set [8]: Performance quality: continuous attention, vigilance, cognitrone (Vienna Test system). In kind it is in vivo, human. Details: Continuous attention: DRT (mean value), after NADH / Cognitrone: DRT (mean), after NADH / Vigilance: correct reactions, after NADH / Vigilance: DRT (mean), after NADH: unit not given here. On the procedure:
The performance quality, reaction speed and constancy of attention also was tested in these athletes. The performance quality was assessed by the accuracy with which a task was done, i.e., generally in terms of the number of correct identifications of stimuli. Methods used for determination of performance quality were measurement of the continuous attention, vigilance, and the cognitrone program of the Vienna Test system (Dr. Schuhfried Ges.m.b.H., Austria). For examination of the physical performance, a bicycle ergometer (Oxycon-Alpha, Jager Inc., Vienna, Austria) was used. […] The volume and the intensity of the training and exercise program of the athletes was kept constant over that period.

The mark [9] stands for this setting: after NADH, 1 tablet NADH (5 mg) per day.
[10] abbreviates: after 4 weeks of one 5-mg tablet NADH per day (n = 17).
The mark [11] stands for this setting: after vs before 4 weeks of one 5-mg tablet NADH per day (n = 17).
Where [12] appears, read: soccer players, per subject, one 5-mg tablet NADH daily for one month.
Setting [13] is: rats, per animal, one 2.5-mg tablet NADH daily for three months.
The mark [14] stands for this setting: 4 weeks after intake of one 5-mg tablet NADH per day, n = 17.
The mark [15] stands for this setting: 4 weeks of one 5-mg tablet NADH per day vs before, n = 17.

Consider three compounds from patent publication US6383771B1, “Enzyme-based assay for determining effects of exogenous and endogenous factors on cellular energy” (Birkmayer Pharmaceuticals, priority 1997, dated 2002).

Values joined by “and” are separate entries in the source; they are usually repeats but may differ in a detail not shown here. Equal entries are not always repeated.

Turning to `C[n+]1ccc(-c2ccccc2)cc1` [MPP^+, 1-methyl-4-phenyl-pyridine], the “effect on complex I in the ETC” value with complex I is listed as “inhibits”.
As for `CN1CC=C(c2ccccc2)CC1` [MPTP, 1-methyl-4-phenyl-1,2,3,6-tetrahydropyridine], the “effect on NADH cytochrome C reductase” value in [1] is “irreversibly inhibits and destroys”.
With `NC(=O)C1=CN([C@@H]2O[C@H](COP(=O)(O)OP(=O)(O)OC[C@H]3O[C@@H](n4cnc5c(N)ncnc54)[C@H](O)[C@@H]3O)[C@@H](O)[C@H]2O)C=CC1` [NADH, reduced form of nicotinamide adenine dinucleotide], the “physical performance on the treadmill or bicycle ergometer” value in data set [2] is recorded as “improved”. In data set [3] (setting [9]), the “Hfmax, mean” value turned out to be 180.00; the “Rmax, mean” value is 1.00; the “VO2Max, mean” value is on record as 4.98; the “VO2Max/kg, mean” value was found to be 71.20. Further, in data set [3] (setting [9]), the “Vmax, mean” value is 163.00; the “Wmax (maximum performance), mean” value turned out to be 340.00; the “Wmax/kg, mean” value was 4.90. In data set [3] (the nineteen athletes with increased enzyme activity, 5 mg NADH daily), the physical performance entry is given as “improved”. Also, in [4] (competitive cyclists, per subject, one 5-mg tablet NADH daily for one month), the “% Difference in enzyme activity (after vs before NADH intake)” value (“% Difference in enzyme activity” below) is 50.00% (4×) and 57.10% and 46.70% (2×) and 76.90% and 47.10% (3×) and 64.30% and 60.00% and 61.50% and 53.30% and 58.30% and 41.20%. Besides, the “Enzyme Activity after NADH intake” value in data set [4] (competitive cyclists, per subject, one 5-mg tablet NADH daily for one month, activity expressed as nmol cytochrome C reduced per μL blood per 5 minutes) is 2.1 (2×) and 2.2 (3×) and 2.3 (3×) and 2.4 (4×) and 2.5 (3×) and 2.7 and 1.9. The “endogenous NADH cytochrome C reductase activity” value in data set [4] (in nineteen of the twenty athletes, 5-mg tablet daily, one month) is “increase”. Also, in data set [5] (setting [10]), the “Lactate Level 1 min. after maximum performance, after NADH, mean” value came out at 9.0 and the “Lactate Level 3 min. after maximum performance, after NADH, mean” value is recorded as 7.4. In [5] (setting [11]), the “Lactate Level 1 min. after maximum performance, Differences in percent, Dmax” value was 22.2%; the “Lactate Level 1 min. after maximum performance, Differences in percent, Dmean” value was 10.0%; the “Lactate Level 1 min. after maximum performance, Differences in percent, Dmed” value is 9.6%; the “Lactate Level 1 min. after maximum performance, Differences in percent, Dmin” value is listed as −7.3%. Also, in data set [5] (setting [11]), the “Lactate Level 3 min. after maximum performance, Differences in percent, Dmax” value was determined as 70.3%; the “Lactate Level 3 min. after maximum performance, Differences in percent, Dmean” value worked out at 17.2%; the “Lactate Level 3 min. after maximum performance, Differences in percent, Dmed” value was −3.7%; the “Lactate Level 3 min. after maximum performance, Differences in percent, Dmin” value is reported as −22.5%. Besides, the “endogenous NADH cytochrome C reductase activity” value in [6] (fifteen soccer players, 5-mg tablet daily, one month) is “increase”. Moreover, in data set [6] (setting [12]), the “% Difference in enzyme activity” value is 20.00% (4×) and 8.30% and −8.30% and 0.00% (2×) and 33.00% and 16.00% and 7.10% (2×) and 162% and 75% and 6.60%; the “Enzyme Activity after NADH intake” value was 1.2 and 1.3 (2×) and 1.6 (5×) and 1.4 (2×) and 1.1 and 1.5 (2×) and 2.1 (2×). In addition, the enzymatic activity result in [7] (all test animals (rats), 2.5-mg tablet daily, three months) is listed as “increase”. Moreover, in data set [7] (setting [13]), the “% Difference in enzyme activity” value is 17.1% and 13.5% (2×) and 11.4% and 7.5% and 13.8% (2×) and 20.0% and 9.6% and 12.5%; the “Enzyme Activity after NADH intake” value was 0.41 (3×) and 0.42 (2×) and 0.39 and 0.43 (2×) and 0.45 (2×). Besides, in [8] (setting [14]), the “Cognitrone: Correct reactions, after NADH” value is 190.10; the “Cognitrone: DRT (mean), after NADH” value is 2.09; the “Continuous attention: DRT (mean value), after NADH” value is recorded as 0.81; the “Continuous attention: Dispersion, after NADH” value is on record as 0.17. Moreover, in [8] (setting [14]), the “Continuous attention: correct reactions, after NADH” value was 118.80; the “Continuous attention: missed reactions, after NADH” value was determined as 1.24; the “Vigilance: DRT (mean), after NADH” value is 0.55; the “Vigilance: Dispersion, after NADH” value came out at 0.11. Moreover, in [8] (setting [14]), the “Vigilance: correct reactions, after NADH” value came out at 97.88 and the “Vigilance: incorrect reactions, after NADH” value stood at 1.24. In data set [8] (setting [15]), the “Cognitrone: Correct reactions, % alteration per person” value was 2.98%; the “Cognitrone: DRT (mean), % alteration per person” value is on record as −16.05%; the “Cognitrone: working time (min), % alteration per person” value is on record as −14.36%; the “Continuous attention: DRT (mean value), % alteration per person” value was −6.48%. For the same compound, in data set [8] (setting [15]), the “Continuous attention: Dispersion, % alteration per person” value is given as −11.59%; the “Continuous attention: correct reactions, % alteration per person” value is given as 1.42%; the “Continuous attention: incorrect reactions, absolute alteration per person” value is on record as −1.12; the “Continuous attention: missed reactions, absolute alteration per person” value was −1.41. For the same compound, in [8] (setting [15]), the “Vigilance: DRT (mean), % alteration per person” value was 7.79%; the “Vigilance: Dispersion, % alteration per person” value is 4.79%; the “Vigilance: correct reactions, % alteration per person” value was 0.01%; the “Vigilance: incorrect reactions, absolute alteration per person” value is −0.65. Besides, in data set [8] (setting [15]), the “Vigilance: missed reactions, absolute alteration per person” value amounted to 0.24. The mental performance result in [8] (the nineteen athletes with increased enzyme activity, 5 mg NADH daily, 4 weeks) is reported as “improved”.
